From PubChem BioAssay AID328 (DTP/NCI, 2004)
Where “and” joins values, the source holds several entries; their conditions need not be identical. Equal values may be shown once. Inconclusive results and toxic doses are left out. Non-standard residues stand in square brackets, D forms with d. Residues, ends and D or L forms follow the SMILES beside them. ξ: configuration not given here. *: point of attachment. Cbz = O=C(OCc1ccccc1)*; ξK = NCCCCC(N)C(=O)O

Tested on: BDF1 mice, P388 leukemia ip, median survival T/C
Experiment: NCI In Vivo Anticancer Drug Screen. Data for tumor model P388 Leukemia (intraperitoneal) in B6D2F1 (BDF1) mice
Conditions: endpoint: median survival time, higher = longer survival
How it was run: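 Read-out is survival of treated animals expressed relative to the vehicle group, as a T/C ratio.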

[1] = dose: 100.0 mg/kg/injection, schedule: Q01DX009 (ip), vehicle: Klucel (hydroxypropylcellulose) (HPC)
[2] = dose: 200.0 mg/kg/injection, schedule: Q01DX009 (ip), vehicle: Klucel (hydroxypropylcellulose) (HPC)
[3] = dose: 25.0 mg/kg/injection, schedule: Q01DX009 (ip), vehicle: saline with Tween-80
[4] = dose: 50.0 mg/kg/injection, schedule: Q01DX009 (ip), vehicle: saline with Tween-80
[5] = dose: 100.0 mg/kg/injection, schedule: Q01DX009 (ip), vehicle: saline with Tween-80
[6] = dose: 50.0 mg/kg/injection, schedule: Q01DX009 (ip), vehicle: Klucel (hydroxypropylcellulose) (HPC)
[7] = dose: 100.0 mg/kg/injection, schedule: Q04DX003 (ip), vehicle: Klucel (hydroxypropylcellulose) (HPC)
[8] = dose: 200.0 mg/kg/injection, schedule: Q04DX003 (ip), vehicle: Klucel (hydroxypropylcellulose) (HPC)
[9] = dose: 25.0 mg/kg/injection, schedule: Q01DX009 (ip), vehicle: Klucel (hydroxypropylcellulose) (HPC)
[10] = dose: 200.0 mg/kg/injection, schedule: Q04DX003 (ip), vehicle: saline with Tween-80
[11] = dose: 6.25 mg/kg/injection, schedule: Q01DX009 (ip), vehicle: Klucel (hydroxypropylcellulose) (HPC)
[12] = dose: 12.0 mg/kg/injection, schedule: Q01DX009 (ip), vehicle: Klucel (hydroxypropylcellulose) (HPC)
[13] = dose: 12.5 mg/kg/injection, schedule: Q01DX009 (ip), vehicle: Klucel (hydroxypropylcellulose) (HPC)

## CCCN1CCC2(CC1)COCc1ccccc12
dose: 50.0 mg/kg/injection, schedule: Q04DX002 (ip), vehicle: saline with Tween-80
  T/C: 98 % of control
dose: 100.0 mg/kg/injection, schedule: Q04DX002 (ip), vehicle: saline with Tween-80
  T/C: 91 % of control

## Cn1cnc2c1c(=O)[nH]c(=O)n2C
[1]
  T/C: 109 % of control
[2]
  T/C: 104 % of control
dose: 400.0 mg/kg/injection, schedule: Q01DX009 (ip), vehicle: Klucel (hydroxypropylcellulose) (HPC)
  T/C: 97 % of control

## COC(=O)C1(C)N=C(Cc2ccccc2)OO1 (centres undefined)
[3]
  T/C: 100 % of control
[4]
  T/C: 110 % of control
[5]
  T/C: 105 % of control

## O=P1(N(CCCl)CCCl)NC(OOC2CCOP(=O)(N(CCCl)CCCl)N2)CCO1 (centres undefined)
dose: 50.0 mg/kg/injection, schedule: Q01DX001 (ip), vehicle: Klucel (hydroxypropylcellulose) (HPC)
  T/C: 200 % of control
dose: 100.0 mg/kg/injection, schedule: Q01DX001 (ip), vehicle: Klucel (hydroxypropylcellulose) (HPC)
  T/C: 236 % of control
dose: 200.0 mg/kg/injection, schedule: Q01DX001 (ip), vehicle: Klucel (hydroxypropylcellulose) (HPC)
  T/C: 272 % of control
dose: 400.0 mg/kg/injection, schedule: Q01DX001 (ip), vehicle: Klucel (hydroxypropylcellulose) (HPC)
  T/C: 273 % of control

## CCOC(=O)CCOCOCCC(=O)OCC
dose: 100.0 mg/kg/injection, schedule: Q04DX003 (ip), vehicle: saline
  T/C: 100 % of control
dose: 200.0 mg/kg/injection, schedule: Q04DX003 (ip), vehicle: saline
  T/C: 95 % of control
dose: 400.0 mg/kg/injection, schedule: Q04DX003 (ip), vehicle: saline
  T/C: 95 % of control

## O=C(NCCCl)NC1c2ccccc2CCc2ccccc21
[6]
  T/C: 105 % of control
[1]
  T/C: 105 % of control
[7]
  T/C: 95 % of control
[2]
  T/C: 100 % of control
[8]
  T/C: 90 % of control

## CC(=O)N1CSCC1C(=O)O (centres undefined)
[7]
  T/C: 100 % of control
[8]
  T/C: 100 % of control
dose: 400.0 mg/kg/injection, schedule: Q04DX003 (ip), vehicle: Klucel (hydroxypropylcellulose) (HPC)
  T/C: 100 % of control

## NCC(=O)Nc1ccc(O)cc1
dose: 79.0 mg/kg/injection, schedule: Q04DX003 (ip), vehicle: saline with Tween-80
  T/C: 100 % of control
dose: 118.0 mg/kg/injection, schedule: Q04DX003 (ip), vehicle: saline with Tween-80
  T/C: 104 % of control
dose: 176.0 mg/kg/injection, schedule: Q04DX003 (ip), vehicle: saline with Tween-80
  T/C: 100 % of control
dose: 400.0 mg/kg/injection, schedule: Q01DX009 (ip), vehicle: saline with Tween-80
  T/C: 118 % of control
dose: 600.0 mg/kg/injection, schedule: Q01DX009 (ip), vehicle: saline with Tween-80
  T/C: 90 % of control

## CN1C(=O)CC2(CCN(CCCC(=O)c3ccc(F)cc3)CC2)C1=O
dose: 6.25 mg/kg/injection, schedule: Q01DX009 (ip), vehicle: saline with Tween-80
  T/C: 116 % of control
dose: 12.5 mg/kg/injection, schedule: Q01DX009 (ip), vehicle: saline with Tween-80
  T/C: 107 % of control
[9]
  T/C: 118 % of control
[3]
  T/C: 124 % of control
[6]
  T/C: 120 % of control
[4]
  T/C: 97 % of control

## Nc1ncc(C2OC(CO)C(O)C2O)c(=O)[nH]1 (centres undefined)
dose: 16.0 mg/kg/injection, schedule: Q01DX005 (ip), vehicle: saline
  T/C: 123 % of control
dose: 128.0 mg/kg/injection, schedule: Q01DX005 (ip), vehicle: saline
  T/C: 150 % of control

## NC(N)=Nc1ccc(C(=O)O)cc1
dose: 50.0 mg/kg/injection, schedule: Q04DX003 (ip), vehicle: saline with Tween-80
  T/C: 104 % of control
dose: 100.0 mg/kg/injection, schedule: Q04DX003 (ip), vehicle: saline with Tween-80
  T/C: 100 % of control
[10]
  T/C: 100 % of control

## CC(=O)[C@H]1CC[C@H]2[C@@H]3C[C@H](F)C4=CC(=O)CC[C@]4(C)[C@H]3C(=O)C[C@]12C
[4]
  T/C: 112 % of control
[5]
  T/C: 104 % of control
dose: 200.0 mg/kg/injection, schedule: Q01DX009 (ip), vehicle: saline with Tween-80
  T/C: 116 % of control
[10]
  T/C: 100 % of control
dose: 400.0 mg/kg/injection, schedule: Q04DX003 (ip), vehicle: saline with Tween-80
  T/C: 111 % of control

## CC(=O)c1cc(CN(CCCl)CCCl)c(O)c(CN(CCCl)CCCl)c1O
dose: 0.05 mg/kg/injection, schedule: Q01DX009 (ip), vehicle: Klucel (hydroxypropylcellulose) (HPC)
  T/C: 100 % of control
dose: 0.1 mg/kg/injection, schedule: Q01DX009 (ip), vehicle: Klucel (hydroxypropylcellulose) (HPC)
  T/C: 120 % of control
dose: 0.2 mg/kg/injection, schedule: Q01DX009 (ip), vehicle: Klucel (hydroxypropylcellulose) (HPC)
  T/C: 110 % of control
dose: 0.4 mg/kg/injection, schedule: Q01DX009 (ip), vehicle: Klucel (hydroxypropylcellulose) (HPC)
  T/C: 120 % of control
dose: 5.5 mg/kg/injection, schedule: Q01DX009 (ip), vehicle: Klucel (hydroxypropylcellulose) (HPC)
  T/C: 162 % of control
[11]
  T/C: 118 % of control
dose: 8.0 mg/kg/injection, schedule: Q01DX009 (ip), vehicle: Klucel (hydroxypropylcellulose) (HPC)
  T/C: 166 % of control
dose: 8.3 mg/kg/injection, schedule: Q01DX009 (ip), vehicle: Klucel (hydroxypropylcellulose) (HPC)
  T/C: 166 % of control
[12]
  T/C: 183 % of control
[13]
  T/C: 183 % of control and 190 % of control
dose: 18.0 mg/kg/injection, schedule: Q01DX009 (ip), vehicle: Klucel (hydroxypropylcellulose) (HPC)
  T/C: 250 % of control
[9]
  T/C: 154 % of control

## CC(=O)NC(CCCCNC(=O)OCc1ccccc1)C(=O)NCC(=O)O (centres undefined) (Ac-[ξK](Cbz)-Gly-OH)
dose: 50.0 mg/kg/injection, schedule: Q01DX005 (ip), vehicle: saline with Tween-80
  T/C: 93 % of control
dose: 100.0 mg/kg/injection, schedule: Q01DX005 (ip), vehicle: saline with Tween-80
  T/C: 105 % of control
dose: 200.0 mg/kg/injection, schedule: Q01DX005 (ip), vehicle: saline with Tween-80
  T/C: 100 % of control

## Cc1ccc(C(=O)[O][Hg][CH2]C2COC([CH2][Hg][O]C(=O)c3ccc(C)cc3)CO2)cc1 (centres undefined)
dose: 2.25 mg/kg/injection, schedule: Q01DX009 (ip), vehicle: saline with Tween-80
  T/C: 90 % of control
dose: 6.25 mg/kg/injection, schedule: Q01DX009 (ip), vehicle: saline sonified
  T/C: 110 % of control
dose: 6.25 mg/kg/injection, schedule: Q04DX003 (ip), vehicle: saline with Tween-80
  T/C: 107 % of control
dose: 12.5 mg/kg/injection, schedule: Q04DX003 (ip), vehicle: saline with Tween-80
  T/C: 107 % of control
[9]
  T/C: 109 % of control
dose: 25.0 mg/kg/injection, schedule: Q01DX009 (ip), vehicle: saline sonified
  T/C: 150 % of control
dose: 25.0 mg/kg/injection, schedule: Q04DX003 (ip), vehicle: saline with Tween-80
  T/C: 103 % of control
[6]
  T/C: 109 % of control
[1]
  T/C: 86 % of control
dose: 225.0 mg/kg/injection, schedule: Q04DX003 (ip), vehicle: Klucel (hydroxypropylcellulose) (HPC)
  T/C: 109 % of control

## Cn1c(=O)c2ncnnc2n(C)c1=O
dose: 1.5 mg/kg/injection, schedule: Q01DX009 (ip), vehicle: Klucel (hydroxypropylcellulose) (HPC)
  T/C: 103 % of control
dose: 3.0 mg/kg/injection, schedule: Q01DX009 (ip), vehicle: Klucel (hydroxypropylcellulose) (HPC)
  T/C: 107 % of control
dose: 6.0 mg/kg/injection, schedule: Q01DX009 (ip), vehicle: Klucel (hydroxypropylcellulose) (HPC)
  T/C: 112 % of control
[11]
  T/C: 250 % of control
[12]
  T/C: 106 % of control
[13]
  T/C: 108 % of control

## COc1cc(/C=C\C(=O)c2ccc(F)cc2)cc(OC)c1OC
dose: 100.0 mg/kg/injection, schedule: Q01DX001 (ip), vehicle: saline with Tween-80
  T/C: 98 % of control
dose: 200.0 mg/kg/injection, schedule: Q01DX001 (ip), vehicle: saline with Tween-80
  T/C: 96 % of control
dose: 400.0 mg/kg/injection, schedule: Q01DX001 (ip), vehicle: saline with Tween-80
  T/C: 100 % of control

## NC(=O)NO
dose: 31.3 mg/kg/injection, schedule: Q01DX010 (ip), vehicle: saline
  T/C: 100 % of control
dose: 62.5 mg/kg/injection, schedule: Q01DX010 (ip), vehicle: saline
  T/C: 100 % of control
dose: 125.0 mg/kg/injection, schedule: Q01DX010 (ip), vehicle: saline
  T/C: 100 % of control
dose: 250.0 mg/kg/injection, schedule: Q01DX010 (ip), vehicle: saline
  T/C: 100 % of control
dose: 500.0 mg/kg/injection, schedule: Q01DX010 (ip), vehicle: saline
  T/C: 150 % of control
dose: 750.0 mg/kg/injection, schedule: Q01DX009 (ip), vehicle: saline
  T/C: 100 % of control
